Earlier results as cited in US20160206641A1, “RAPIDLY-[…] FILM FORMULATION OF WATER SOLUBLE […] GLYCOSIDE FOR THE TREATMENT OF […] DISEASE” (LUMINUS BIOSCIENCES INC., priority 2013, published 2016).
Converted amounts (≈) assume the structure as drawn.

C[C@@H]1O[C@@H](O[C@H]2C[C@@H](O)[C@]3(CO)[C@H]4[C@H](O)C[C@]5(C)[C@@H](C6=CC(=O)OC6)CC[C@]5(O)[C@@H]4CC[C@]3(O)C2)[C@H](O)[C@H](O)[C@H]1O [ouabain, 1β,3β,5β,11α,14,19-Hexahydroxycard-20(22)-enolide 3-(6-deoxy-α-L-mannopyranoside)]
solubility in cold water (cold water): 10000 µg/mL (≈ 17.1 mM) | solubility in hot water (hot water): more than 50 mg/ml
